In ChEMBL document CHEMBL4052645, “Discovery of potent and efficacious pyrrolopyridazines as dual JAK1/3 inhibitors” (Bioorg Med Chem Lett, 2017):

Experiments:
[1] = molecular target: Dual specificity protein kinase CLK1 (Homo sapiens) (UniProt P49759); assay: Inhibition of wild-type human full length CLK1 (M1 to I484 residues) expressed in bacterial expression system assessed as residual activity at 50 nM by Kinomescan method relative to control
[2] = molecular target: Mitogen-activated protein kinase kinase kinase 15 (Homo sapiens) (UniProt Q6ZN16); assay: Inhibition of wild-type human partial length MAP3K15 (T625 to L932 residues) expressed in mammalian expression system assessed as residual activity at 50 nM by Kinomescan method relative to control
[3] = molecular target: Proto-oncogene tyrosine-protein kinase Src (Homo sapiens) (UniProt P12931); assay: Inhibition of wild-type human partial length SRC (L240 to L536 residues) expressed in bacterial expression system assessed as residual activity at 50 nM by Kinomescan method relative to control
[4] = molecular target: Serine/threonine-protein kinase MRCK beta (Homo sapiens) (UniProt Q9Y5S2); assay: Inhibition of human MRCKB (L56 to S417 residues) expressed in bacterial expression system assessed as residual activity at 50 nM by KINOMEscan assay relative to control
[5] = molecular target: Phosphatidylinositol 4-kinase beta (Homo sapiens) (UniProt Q9UBF8); assay: Inhibition of wild-type human full length PIK4CB (M1 to M828 residues) expressed in mammalian expression system assessed as residual activity at 50 nM by Kinomescan method relative to control
[6] = molecular target: Cyclin-dependent kinase 18 (Homo sapiens) (UniProt Q07002); assay: Inhibition of wild-type human full length PCTAIRE3 (M3 to F474 residues) expressed in bacterial expression system assessed as residual activity at 50 nM by Kinomescan method relative to control
[7] = molecular target: Ribosomal protein S6 kinase alpha-1 (Homo sapiens) (UniProt Q15418); assay: Inhibition of wild-type human partial length C-terminal RSK1 […] (P360 to L681 residues) expressed in bacterial expression system assessed as residual activity at 50 nM by Kinomescan method relative to control
Sequence of Ribosomal protein S6 kinase alpha-1 (Homo sapiens) (Q15418 whole entry, the tested form may be a part): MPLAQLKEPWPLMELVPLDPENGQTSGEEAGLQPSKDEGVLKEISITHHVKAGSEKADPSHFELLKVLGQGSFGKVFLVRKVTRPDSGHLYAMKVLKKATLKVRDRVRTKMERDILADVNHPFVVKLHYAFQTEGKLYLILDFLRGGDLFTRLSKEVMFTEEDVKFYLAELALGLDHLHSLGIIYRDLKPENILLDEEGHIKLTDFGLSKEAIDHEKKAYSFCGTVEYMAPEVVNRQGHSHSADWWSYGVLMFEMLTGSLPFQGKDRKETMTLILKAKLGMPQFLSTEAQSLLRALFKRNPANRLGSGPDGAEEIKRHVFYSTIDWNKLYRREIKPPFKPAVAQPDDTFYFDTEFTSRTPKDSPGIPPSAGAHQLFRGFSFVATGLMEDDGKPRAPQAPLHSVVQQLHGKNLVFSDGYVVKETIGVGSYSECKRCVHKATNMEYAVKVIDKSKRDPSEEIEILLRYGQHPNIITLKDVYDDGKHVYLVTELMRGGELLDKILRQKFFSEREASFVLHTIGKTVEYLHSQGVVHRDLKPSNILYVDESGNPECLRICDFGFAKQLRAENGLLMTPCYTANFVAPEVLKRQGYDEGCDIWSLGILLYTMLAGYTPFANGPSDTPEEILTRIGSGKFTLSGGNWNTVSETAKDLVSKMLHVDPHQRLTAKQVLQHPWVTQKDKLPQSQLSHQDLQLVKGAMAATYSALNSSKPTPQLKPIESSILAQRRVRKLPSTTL

[8] = molecular target: Ribosomal protein S6 kinase alpha-1 (Homo sapiens) (UniProt Q15418); assay: Inhibition of wild-type human partial length N-terminal RSK1 Kinase domain 1 (M1 to E388 residues) expressed in bacterial expression system assessed as residual activity at 50 nM by Kinomescan method relative to control
[9] = molecular target: Mitogen-activated protein kinase kinase kinase kinase 5 (Homo sapiens) (UniProt Q9Y4K4); assay: Inhibition of recombinant human KHS1 (M1 to P297 residues) expressed in bacterial expression system assessed as residual activity at 50 nM by Kinomescan method relative to control
[10] = system: Plasmodium falciparum; assay: Inhibition of wild-type Plasmodium falciparum full length PFB0815W (M1 to S524 residues) expressed in mammalian expression system assessed as residual activity at 50 nM by Kinomescan method relative to control
[11] = system: Phosphatidylinositol 4,5-bisphosphate 3-kinase catalytic subunit alpha isoform (Homo sapiens), P42336 [C420R]; assay: Inhibition of human partial length PI3KCA C420R mutant (R108 to N1068 residues) expressed in mammalian expression system assessed as residual activity at 50 nM by Kinomescan method relative to control
Sequence of Phosphatidylinositol 4,5-bisphosphate 3-kinase catalytic subunit alpha isoform (Homo sapiens), P42336 [C420R] (P42336 whole entry C420R, the tested form may be a part, canonical isoform): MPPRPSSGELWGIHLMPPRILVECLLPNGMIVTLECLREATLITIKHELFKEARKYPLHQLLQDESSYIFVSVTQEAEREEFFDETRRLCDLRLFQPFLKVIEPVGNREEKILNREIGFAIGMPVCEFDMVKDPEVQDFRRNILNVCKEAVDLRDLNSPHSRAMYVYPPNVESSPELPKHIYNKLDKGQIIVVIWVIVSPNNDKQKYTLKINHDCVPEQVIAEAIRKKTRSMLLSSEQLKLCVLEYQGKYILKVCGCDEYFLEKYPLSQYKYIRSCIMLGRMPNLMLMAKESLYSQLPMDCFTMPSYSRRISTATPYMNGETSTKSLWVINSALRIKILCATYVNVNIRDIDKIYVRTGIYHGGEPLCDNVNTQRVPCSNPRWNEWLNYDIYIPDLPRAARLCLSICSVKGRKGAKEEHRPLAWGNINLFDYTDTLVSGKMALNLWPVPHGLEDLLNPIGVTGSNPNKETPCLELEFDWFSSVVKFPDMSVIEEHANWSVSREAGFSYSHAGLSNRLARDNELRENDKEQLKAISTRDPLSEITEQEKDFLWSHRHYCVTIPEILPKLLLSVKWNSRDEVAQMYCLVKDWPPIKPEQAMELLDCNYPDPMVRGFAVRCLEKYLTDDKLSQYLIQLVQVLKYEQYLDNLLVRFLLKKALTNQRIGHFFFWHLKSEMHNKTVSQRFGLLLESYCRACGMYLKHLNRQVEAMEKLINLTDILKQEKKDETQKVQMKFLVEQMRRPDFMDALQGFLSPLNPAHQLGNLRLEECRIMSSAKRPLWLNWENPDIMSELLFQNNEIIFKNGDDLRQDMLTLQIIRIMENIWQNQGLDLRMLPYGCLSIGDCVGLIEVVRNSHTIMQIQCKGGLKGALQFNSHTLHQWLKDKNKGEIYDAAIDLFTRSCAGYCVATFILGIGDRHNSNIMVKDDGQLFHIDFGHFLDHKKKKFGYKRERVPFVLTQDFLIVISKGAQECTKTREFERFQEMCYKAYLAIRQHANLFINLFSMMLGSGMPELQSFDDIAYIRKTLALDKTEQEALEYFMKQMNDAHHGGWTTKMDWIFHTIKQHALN

[12] = molecular target: Ephrin type-A receptor 4 (Homo sapiens) (UniProt P54764); assay: Inhibition of wild-type human partial length EPHA4 (T601 to R897 residues) expressed in bacterial expression system assessed as residual activity at 50 nM by Kinomescan method relative to control
[13] = molecular target: Mitogen-activated protein kinase kinase kinase 9 (Homo sapiens) (UniProt P80192); assay: Inhibition of wild-type human partial length MLK1 (V88 to W426 residues) expressed in bacterial expression system assessed as residual activity at 50 nM by Kinomescan method relative to control
Sequence of Mitogen-activated protein kinase kinase kinase 9 (Homo sapiens) (P80192 whole entry, looked up, the tested form may be a part): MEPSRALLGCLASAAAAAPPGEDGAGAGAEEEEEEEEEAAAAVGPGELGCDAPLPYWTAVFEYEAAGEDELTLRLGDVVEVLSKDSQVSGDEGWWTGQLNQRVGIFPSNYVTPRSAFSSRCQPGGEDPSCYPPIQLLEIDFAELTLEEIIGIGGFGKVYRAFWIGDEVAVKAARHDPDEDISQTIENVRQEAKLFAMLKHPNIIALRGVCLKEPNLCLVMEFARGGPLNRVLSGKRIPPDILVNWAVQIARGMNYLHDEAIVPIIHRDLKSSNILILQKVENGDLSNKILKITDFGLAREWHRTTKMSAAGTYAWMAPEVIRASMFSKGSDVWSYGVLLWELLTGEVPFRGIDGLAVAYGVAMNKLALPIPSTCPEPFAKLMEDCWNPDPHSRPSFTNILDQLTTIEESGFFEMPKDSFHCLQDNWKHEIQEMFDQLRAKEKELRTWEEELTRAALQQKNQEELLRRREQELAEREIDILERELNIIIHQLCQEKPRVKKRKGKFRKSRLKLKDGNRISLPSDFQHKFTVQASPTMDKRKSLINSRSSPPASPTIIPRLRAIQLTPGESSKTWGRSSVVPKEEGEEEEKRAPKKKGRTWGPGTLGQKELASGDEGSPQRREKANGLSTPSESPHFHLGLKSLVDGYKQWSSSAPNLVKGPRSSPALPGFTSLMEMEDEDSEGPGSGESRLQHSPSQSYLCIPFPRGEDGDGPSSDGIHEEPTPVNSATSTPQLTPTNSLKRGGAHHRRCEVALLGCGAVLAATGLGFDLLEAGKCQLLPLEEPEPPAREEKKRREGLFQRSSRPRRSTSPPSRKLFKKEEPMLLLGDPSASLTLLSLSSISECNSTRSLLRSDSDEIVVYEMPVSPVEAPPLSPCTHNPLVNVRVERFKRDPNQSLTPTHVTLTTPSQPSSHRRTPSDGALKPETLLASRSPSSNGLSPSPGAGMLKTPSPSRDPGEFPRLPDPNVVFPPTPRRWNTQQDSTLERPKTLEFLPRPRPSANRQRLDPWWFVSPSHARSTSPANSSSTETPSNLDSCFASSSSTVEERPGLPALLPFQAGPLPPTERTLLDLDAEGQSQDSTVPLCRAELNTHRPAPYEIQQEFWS

[14] = molecular target: Tyrosine-protein kinase ABL2 (Homo sapiens) (UniProt P42684); assay: Inhibition of wild-type human ARG (A248 to G542 residues) expressed in bacterial expression system assessed as residual activity at 50 nM by Kinomescan method relative to control
[15] = molecular target: Serine/threonine-protein kinase 33 (Homo sapiens) (UniProt Q9BYT3); assay: Inhibition of wild-type human full length STK33 (M1 to L514 residues) expressed in bacterial expression system assessed as residual activity at 50 nM by Kinomescan method relative to control
[16] = molecular target: Serine/threonine-protein kinase B-raf (Homo sapiens) (UniProt P15056); assay: Inhibition of wild-type human partial length BRAF (S429 to E741 residues) expressed in mammalian expression system assessed as residual activity at 50 nM by Kinomescan method relative to control
[17] = molecular target: Tyrosine-protein kinase BTK (Homo sapiens) (UniProt Q06187); assay: Inhibition of wild-type human full length BTK (M1 to S659 residues) expressed in mammalian expression system assessed as residual activity at 50 nM by Kinomescan method relative to control
Sequence of Tyrosine-protein kinase BTK (Homo sapiens) (Q06187 whole entry, the tested form may be a part): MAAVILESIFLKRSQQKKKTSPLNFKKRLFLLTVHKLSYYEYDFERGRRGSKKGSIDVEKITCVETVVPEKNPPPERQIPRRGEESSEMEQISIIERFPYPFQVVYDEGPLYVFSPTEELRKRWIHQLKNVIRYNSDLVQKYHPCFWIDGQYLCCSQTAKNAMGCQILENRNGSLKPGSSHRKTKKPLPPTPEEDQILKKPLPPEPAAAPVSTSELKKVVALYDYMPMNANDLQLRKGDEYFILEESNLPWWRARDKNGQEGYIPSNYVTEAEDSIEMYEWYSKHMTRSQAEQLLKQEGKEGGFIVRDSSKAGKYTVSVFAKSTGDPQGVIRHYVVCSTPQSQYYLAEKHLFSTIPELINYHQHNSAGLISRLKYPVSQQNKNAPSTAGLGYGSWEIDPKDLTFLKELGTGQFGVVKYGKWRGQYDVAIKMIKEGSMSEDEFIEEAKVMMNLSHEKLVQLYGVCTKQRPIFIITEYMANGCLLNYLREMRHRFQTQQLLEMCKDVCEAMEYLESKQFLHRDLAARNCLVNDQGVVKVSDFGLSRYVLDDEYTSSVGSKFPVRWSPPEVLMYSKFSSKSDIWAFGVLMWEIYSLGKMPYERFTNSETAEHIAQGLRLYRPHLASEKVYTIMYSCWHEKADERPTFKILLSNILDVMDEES

[18] = molecular target: Phosphatidylinositol 4-phosphate 5-kinase type-1 alpha (Homo sapiens) (UniProt Q99755); assay: Inhibition of human PIP5K1A (M1 to H562 residues) expressed in bacterial expression system assessed as residual activity at 50 nM by KINOMEscan assay relative to control
[19] = molecular target: Ephrin type-B receptor 6 (Homo sapiens) (UniProt O15197); assay: Inhibition of wild-type human partial length EPHB6 (Q634 to P948 residues) expressed in mammalian expression system assessed as residual activity at 50 nM by Kinomescan method relative to control
Sequence of Ephrin type-B receptor 6 (Homo sapiens) (O15197 whole entry, the tested form may be a part): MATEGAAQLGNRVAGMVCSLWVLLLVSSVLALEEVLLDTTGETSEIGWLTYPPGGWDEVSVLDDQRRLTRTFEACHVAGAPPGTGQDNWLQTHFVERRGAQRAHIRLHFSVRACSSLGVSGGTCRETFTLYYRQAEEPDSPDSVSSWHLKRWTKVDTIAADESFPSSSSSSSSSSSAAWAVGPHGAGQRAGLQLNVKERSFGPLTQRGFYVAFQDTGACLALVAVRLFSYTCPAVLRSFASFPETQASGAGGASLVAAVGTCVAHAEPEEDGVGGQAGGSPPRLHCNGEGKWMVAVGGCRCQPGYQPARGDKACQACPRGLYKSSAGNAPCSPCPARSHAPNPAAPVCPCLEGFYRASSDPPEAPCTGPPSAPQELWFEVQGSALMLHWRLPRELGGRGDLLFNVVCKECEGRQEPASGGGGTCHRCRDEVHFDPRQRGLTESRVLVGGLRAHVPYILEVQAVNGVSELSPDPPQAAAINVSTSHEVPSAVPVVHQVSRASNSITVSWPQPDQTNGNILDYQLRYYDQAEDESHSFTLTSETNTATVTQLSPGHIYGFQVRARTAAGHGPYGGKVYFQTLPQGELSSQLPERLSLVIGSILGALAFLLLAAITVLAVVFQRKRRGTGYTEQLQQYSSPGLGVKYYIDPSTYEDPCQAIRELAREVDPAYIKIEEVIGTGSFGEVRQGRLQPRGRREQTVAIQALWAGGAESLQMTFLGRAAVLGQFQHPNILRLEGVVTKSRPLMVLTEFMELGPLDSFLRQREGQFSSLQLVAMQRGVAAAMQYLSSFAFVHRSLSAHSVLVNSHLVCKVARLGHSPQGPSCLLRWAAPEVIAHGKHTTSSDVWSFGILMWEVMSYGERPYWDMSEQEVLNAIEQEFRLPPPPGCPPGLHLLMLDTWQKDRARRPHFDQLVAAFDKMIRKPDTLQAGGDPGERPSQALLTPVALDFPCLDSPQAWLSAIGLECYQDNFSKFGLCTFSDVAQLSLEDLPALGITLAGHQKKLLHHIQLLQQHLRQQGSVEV

[20] = molecular target: Serine/threonine-protein kinase tousled-like 2 (Homo sapiens) (UniProt Q86UE8); assay: Inhibition of wild-type human partial length TLK2 (E424 to N749 residues) expressed in bacterial expression system assessed as residual activity at 50 nM by Kinomescan method relative to control
[21] = molecular target: Cyclin-dependent kinase 7 (Homo sapiens) (UniProt P50613); assay: Inhibition of wild-type human full length CDK7 (M1 to L344 residues) expressed in mammalian expression system assessed as residual activity at 50 nM by Kinomescan method relative to control
[22] = molecular target: Cyclin-dependent kinase 2 (Homo sapiens) (UniProt P24941); assay: Inhibition of wild-type human full length CDK2 (M1 to L298 residues) expressed in bacterial expression system assessed as residual activity at 50 nM by Kinomescan method relative to control
[23] = molecular target: Phosphorylase b kinase gamma catalytic chain, liver/testis isoform (Homo sapiens) (UniProt P15735); assay: Inhibition of wild-type human partial length PHKG2 (M1 to W300 residues) expressed in bacterial expression system assessed as residual activity at 50 nM by Kinomescan method relative to control
[24] = molecular target: Vascular endothelial growth factor receptor 2 (Homo sapiens) (UniProt P35968); assay: Inhibition of wild-type human partial length KDR (R787 to P1253 residues) expressed in mammalian expression system assessed as residual activity at 50 nM by Kinomescan method relative to control
[25] = molecular target: Tyrosine-protein kinase Blk (Homo sapiens) (UniProt P51451); assay: Inhibition of wild-type human partial length BLK (G211 to L503 residues) expressed in bacterial expression system assessed as residual activity at 50 nM by Kinomescan method relative to control
Sequence of Tyrosine-protein kinase Blk (Homo sapiens) (P51451 2-505 limits assumed): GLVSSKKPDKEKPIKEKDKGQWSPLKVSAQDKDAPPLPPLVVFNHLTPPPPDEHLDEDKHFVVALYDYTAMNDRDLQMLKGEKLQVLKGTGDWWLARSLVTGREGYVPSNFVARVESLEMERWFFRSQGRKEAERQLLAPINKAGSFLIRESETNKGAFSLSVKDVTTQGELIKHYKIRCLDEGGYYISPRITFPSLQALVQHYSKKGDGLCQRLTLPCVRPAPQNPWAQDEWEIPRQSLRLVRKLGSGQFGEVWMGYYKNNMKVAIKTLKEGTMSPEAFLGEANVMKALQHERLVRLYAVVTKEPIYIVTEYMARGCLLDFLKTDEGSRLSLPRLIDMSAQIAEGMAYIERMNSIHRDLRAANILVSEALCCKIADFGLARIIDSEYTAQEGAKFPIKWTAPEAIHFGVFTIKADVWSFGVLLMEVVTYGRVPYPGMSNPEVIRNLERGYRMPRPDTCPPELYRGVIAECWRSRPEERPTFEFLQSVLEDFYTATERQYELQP

SMILES	Activity [1]	Activity [2]	Activity [3]	Activity [4]	Activity [5]	Activity [6]	Activity [7]	Activity [8]	Activity [9]	Activity [10]	Activity [11]	Activity [12]	Activity [13]	Activity [14]	Activity [15]	Activity [16]	Activity [17]	Activity [18]	Activity [19]	Activity [20]	other results
COc1ccc(-c2cc3c(N[C@@H]4CC[C@](C)(N)C4(C)C)c(C(N)=O)cnn3c2)cn1	97%	98%	97%	82%	100%	100%	100%	100%	100%	100%	100%	100%	90%	91%	100%	100%	100%	17%	86%	98%	Activity [21]: 84%; Activity [22]: 88%; Activity [23]: 100%; Activity [24]: 88%; Activity [25]: 95%
CC1(C)[C@H](Nc2c(C(N)=O)cnn3cc(-c4ccccc4)cc23)CC[C@]1(C)N	100%	100%	75%	29%	90%	58%	81%	67%	80%	67%	100%	100%	78%	91%	100%	92%	99%	8.8%	66%	96%	Activity [21]: 93%; Activity [22]: 100%; Activity [23]: 67%; Activity [24]: 100%; Activity [25]: 100%
